Here are results for 13 molecules from ChEMBL document CHEMBL1938253, “Design and synthesis of novel macrocyclic 2-amino-6-arylpyrimidine Hsp90 inhibitors” (Bioorg Med Chem Lett, 2012).

In general, solubility refers to the concentration that dissolves in the medium under given conditions. A lower solubility goes with little dissolved substance. One may read the microsomal CLint as the capacity of the preparation to metabolise the compound, expressed as a volume cleared per time. Low readings indicate greater metabolic stability, high ones faster metabolism. Usually Kd stands for the constant that tells how readily two partners part at equilibrium. Low readings indicate tighter binding, high ones weaker binding. In general, Tmax refers to the time from dosing to the highest level. What is called half-life is the time needed for the level to fall by half in the phase considered.

A short description of one data set: physchem. The following applies: fasted state simulated intestinal fluid.
A short description of data set [1]: in vitro. The settings on record: mouse, liver microsomes.
In data set [2] the target is Heat shock protein HSP 90-alpha (Homo sapiens, UniProt P07900).
Description: Binding affinity to N-terminus biotinylated human Hsp90 alpha by surface plasmon resonance assay
The nature of data set [3]: in vitro. The following applies: human, liver microsomes.
Data set [4] in a line: Tmax in athymic nu/nu mouse at 200 mg/kg, po. In kind it is ADME, organism-based. Details: dose 200 mg/kg, route oral. The following applies: in vivo.
Data set [5] is described as follows: Half life in athymic nu/nu mouse at 10 mg/kg, iv. In kind it is ADME, organism-based. Details: dose 10 mg/kg, route intravenous. The following applies: in vivo.

SMILES strings stand for the structures. ≈ marks a conversion by molar mass, not a printed value. Bounds are passed on as bounds.

With `Cc1cc(C)c2cc1C(=O)NCCNC(=O)CCCSc1cc-2nc(N)n1`, the solubility in “physchem” is 106 µM (≈ 40.9 µg/mL). Besides, the microsomal CLint at 1 h, 5 µM in “in vitro [1]” worked out at 3.6 µL/min/mg; in the data set “in vitro [3]”, 5.4 µL/min/mg. In data set [2], this molecule had a Kd of 0.61 nM.
As to `Cc1cc(C)c2cc1C(=O)NCCOC(=O)NCCSc1cc-2nc(N)n1`, the solubility in the data set “physchem” was 911 µM (≈ 353 µg/mL). Also, the microsomal CLint at 1 h, 5 µM was determined as 7.3 µL/min/mg in the data set “in vitro [1]” and 3.5 µL/min/mg in the data set “in vitro [3]”. This molecule also had a Kd in data set [2] of 0.7 nM.
With `Cc1cc(C)c2cc1C(=O)NCCCCCNC(=O)CCSc1cc-2nc(N)n1`, the solubility in the data set “physchem” was 169 µM (≈ 69.9 µg/mL). The microsomal CLint at 1 h, 5 µM in “in vitro [1]” is 1.8 µL/min/mg; in “in vitro [3]”, 1.7 µL/min/mg.
Molecule `Cc1cc(C)c2cc1C(=O)NCCCCCOc1cccc(c1)Sc1cc-2nc(N)n1` returned a solubility in “physchem” of 39 µM (≈ 16.9 µg/mL).
For the molecule `Cc1ccc2cc1-c1cc(nc(N)n1)Sc1cccc(c1)OCCCO2`, the Kd in data set [2] worked out at 120 nM.
Take `Cc1cc(C)c2cc1C(=O)NCCCC(=O)NCCSc1cc-2nc(N)n1`: the concentration in solution in “physchem” (solubility) came to 117 µM (≈ 45.1 µg/mL). In addition, the intrinsic clearance (microsomal CLint) at 1 h, 5 µM in the data set “in vitro [1]” was determined as 15 µL/min/mg; in the data set “in vitro [3]”, 1 µL/min/mg. This molecule yielded a Kd in data set [2] of 0.65 nM.
`CSc1nc(N)nc(-c2ccc3c4c(cc(Cl)cc24)COC3)n1` showed a solubility in the data set “physchem” of 29 µM (≈ 10 µg/mL). Moreover, in data set [4], the Tmax is 30 min. Besides, in data set [5], the half-life was 15 min. Also, the microsomal CLint at 1 h, 5 µM in “in vitro [1]” was determined as 60 µL/min/mg; in the data set “in vitro [3]”, 43 µL/min/mg. In data set [2], this molecule showed a Kd of 3.4 nM.
`COc1cc(C)c2cc1C(=O)NCCCOc1cccc(c1)Sc1cc-2nc(N)n1` returned a solubility in the data set “physchem” of 260 µM (≈ 110 µg/mL). Moreover, binding in data set [2] was put at a Kd of 5.8 nM.
Consider `Cc1cc(C)c2cc1C(=O)NCCCCOc1cccc(c1)Sc1cc-2nc(N)n1`, for which the solubility in the data set “physchem” was 69 µM (≈ 29 µg/mL).
As to `Cc1cc(C)c2cc1C(=O)NCCNC(=O)OCCSc1cc-2nc(N)n1`, the solubility in the data set “physchem” was 111 µM (≈ 43 µg/mL). The microsomal CLint at 1 h, 5 µM turned out to be 21 µL/min/mg in the data set “in vitro [1]” and 9.3 µL/min/mg in the data set “in vitro [3]”. In data set [2], this molecule displayed a Kd of 0.8 nM.
`CCOc1cc(C)c2cc1C(=O)NCCCOc1cccc(c1)Sc1cc-2nc(N)n1` had a solubility in the data set “physchem” of 186 µM (≈ 81.2 µg/mL). In data set [2], this molecule showed a Kd of 10 nM.
In the data set “physchem”, `Nc1nc2cc(n1)-c1cc(c(Cl)cc1Cl)OCCCCOc1cccc(c1)S2` gave a solubility of less than 7 µM. Also, binding in data set [2] was characterised by a dissociation constant (Kd) of 11 nM.
The molecule `Cc1cc(C)c2cc1C(=O)NCCCCNC(=O)CCSc1cc-2nc(N)n1` returned a solubility in “physchem” of 553 µM (≈ 221 µg/mL). For the same molecule, the microsomal CLint at 1 h, 5 µM in the data set “in vitro [1]” was found to be 3.5 µL/min/mg; in the data set “in vitro [3]” it was 5.1 µL/min/mg.
